Measurements reported in US20240360174A1, “CELL-PENETRATING PEPTIDE SEQUENCES” (Ohio State Innovation Foundation, priority 2016, published 2024).
Bridge positions count the residues as written; N and C are the ends. Square brackets hold non-standard residues; d marks the D form. Ends that are not written are not given here. Phe(4-F) = N[C@@H](Cc1ccc(F)cc1)C(=O)O; 2Nal = N[C@@H](Cc1ccc2ccccc2c1)C(=O)O; d2Nal = N[C@H](Cc1ccc2ccccc2c1)C(=O)O; Pip = O=C(O)[C@@H]1CCCCN1

Each substance was assayed on HeLa cells (assay: Cellular uptake / cytosolic delivery efficiency of NF-labelled peptides by flow cytometry). Details: 2 h, 5 mM naphthofluorescein-labelled peptide, relative to CPP 1 (100%), mean ± S.D. of three independent experiments.
Assay type: cell-based
From the text: Absolute cytosolic delivery efficiency is the ratio of cytosolic concentration of a CPP (or a CPP-cargo conjugate) over the concentration of the CPP (or the CPP-cargo conjugate) in the growth medium. Relative cytosolic delivery efficiency refers to the concentration of a CPP in the cytosol compared to the concentration of a control CPP in the cytosol. Quantification can be achieved by fluorescently labeling the CPP (e.g., with a FTIC dye) and measuring the fluorescence intensity using techniques well-known in the art.
In particular embodiments, relative cytosolic delivery efficiency is determined by comparing (i) the amount of a CPP of the invention internalized by a cell type (e.g., HeLa cells) to (ii) the amount of the control CPP internalized by the same cell type. To measure relative cytosolic delivery efficiency, the cell type may be incubated in the presence of a cell-penetrating peptide of the invention for a specified period of time (e.g., 30 minutes, 1 hour, 2 hours, etc.) after which the amount of the CPP internalized by the cell is quantified using methods known in the art, e.g., fluorescence microscopy. Separately, the same concentration of the control CPP is incubated in the presence of the cell type over the same period of time, and the amount of the control CPP internalized by the cell is quantified.
To determine cellular uptake efficiency of the CPPs disclosed herein, HeLa cells were cultured in 12-well plates (1.5×10^5 cells per well) overnight. The cells were incubated for 2 h with […] naphthofluorescein (NF)-labelled peptide in cellular media. At the end of incubation, the cells were washed with DPBS twice, detached from the plate with 0.25% trypsin, diluted into clear DMEM, pelleted at 250 g for 5 min, washed twice with DPBS, resuspended in DPBS, and analyzed on a BD FACS LSR II flow cytometer. For NF-labelled peptides, a 633-nm laser was used for excitation and the fluorescence emission was analyzed in the APC channel. Absolute cellular uptake efficiency was determined by comparing the concentration (via fluorescence intensity) of the CPP in the cytosol to the concentration in the extracellular medium.

Compared with “cyclo(FΦRRRQ) (cyclo(F[2Nal]RRRRQ); SMILES N=C(N)NCCC[C@@H]1NC(=O)[C@H](CCCNC(=N)N)NC(=O)[C@H](CCCNC(=N)N)NC(=O)[C@H](Cc2ccc3ccccc3c2)NC(=O)[C@H](Cc2ccccc2)NC(=O)[C@H](CCC(N)=O)NC(=O)[C@H](CCCNC(=N)N)NC1=O) [SAR 1, control CPP, reference compound]”, cyclo(FFRRRRFQ) (cyclic) [SAR 51] is higher in “Relative Cytosolic Delivery Efficiency” value: 100 ± 6% for the first, 162 ± 16% for the second.

Compared with “cyclo(FfFRrRQ) (cyclo(F[dF]FR[dR]RQ); SMILES N=C(N)NCCC[C@@H]1NC(=O)[C@H](Cc2ccccc2)NC(=O)[C@@H](Cc2ccccc2)NC(=O)[C@H](Cc2ccccc2)NC(=O)[C@H](CCC(N)=O)NC(=O)[C@H](CCCNC(=N)N)NC(=O)[C@@H](CCCNC(=N)N)NC1=O) [SAR 57]”, “cyclo(Pip-Nal-phe-Arg-arg-arg-Glu) (cyclo([Pip][2Nal][dF]R[dR][dR]E); SMILES N=C(N)NCCC[C@@H]1NC(=O)[C@@H](Cc2ccccc2)NC(=O)[C@H](Cc2ccc3ccccc3c2)NC(=O)[C@@H]2CCCCN2C(=O)[C@H](CCC(=O)O)NC(=O)[C@@H](CCCNC(=N)N)NC(=O)[C@@H](CCCNC(=N)N)NC1=O) [Pin1 22]” is lower in “Relative Cytosolic Delivery Efficiency” value: 218 ± 9% for the first, 15 ± 6% for the second.

cyclo(FFRRRRQ) (cyclic) [SAR 28] and “cyclo(fFfRrRQ) (cyclo([dF]F[dF]R[dR]RQ); SMILES N=C(N)NCCC[C@@H]1NC(=O)[C@@H](CCCNC(=N)N)NC(=O)[C@H](CCCNC(=N)N)NC(=O)[C@@H](Cc2ccccc2)NC(=O)[C@H](Cc2ccccc2)NC(=O)[C@@H](Cc2ccccc2)NC(=O)[C@H](CCC(N)=O)NC1=O) [SAR 59]” are within error of each other in “Relative Cytosolic Delivery Efficiency” value: 89 ± 27% for the first, 185 ± 91% for the second.

Compared with “cyclo(fΦfrRrQ) (cyclo([dF][2Nal][dF][dR]R[dR]Q); SMILES N=C(N)NCCC[C@@H]1NC(=O)[C@@H](CCCNC(=N)N)NC(=O)[C@@H](Cc2ccccc2)NC(=O)[C@H](Cc2ccc3ccccc3c2)NC(=O)[C@@H](Cc2ccccc2)NC(=O)[C@H](CCC(N)=O)NC(=O)[C@@H](CCCNC(=N)N)NC1=O) [SAR 62]”, “cyclo(fΦrRrQ) (cyclo([dF][2Nal][dR]R[dR]Q); SMILES N=C(N)NCCC[C@@H]1NC(=O)[C@@H](CCCNC(=N)N)NC(=O)[C@H](Cc2ccc3ccccc3c2)NC(=O)[C@@H](Cc2ccccc2)NC(=O)[C@H](CCC(N)=O)NC(=O)[C@@H](CCCNC(=N)N)NC1=O) [SAR 65]” is lower in “Relative Cytosolic Delivery Efficiency” value: 357 ± 59% for the first, 172 ± 37% for the second.

Compared with cyclo(FFFRRRQ) (cyclic) [SAR 34], “cyclo(Pip-Nal-Arg-Glu-arg-arg-glu) (cyclo([Pip][2Nal]RE[dR][dR][dE]); SMILES N=C(N)NCCC[C@@H]1NC(=O)[C@H](Cc2ccc3ccccc3c2)NC(=O)[C@@H]2CCCCN2C(=O)[C@@H](CCC(=O)O)NC(=O)[C@@H](CCCNC(=N)N)NC(=O)[C@@H](CCCNC(=N)N)NC(=O)[C@H](CCC(=O)O)NC1=O) [Pin1 15]” is lower in “Relative Cytosolic Delivery Efficiency” value: 231 ± 43% for the first, 7.7 ± 0.5% for the second.

“Ac-(Lys-fFRrRrD) (K[dF]FR[dR]R[dR]D; not fully specified (N-terminus, bridges); printed as Ac-(Lys-fFRrRrD); also: cyclic, closure sites not given here) [SAR 66]” and cyclo(FFFRRRRQ) (cyclic) [SAR 45] are within error of each other in “Relative Cytosolic Delivery Efficiency” value: 129 ± 9% for the first, 122 ± 20% for the second.

First: cyclo(fFΦrRrQ) (cyclo([dF]F[d2Nal][dR]R[dR]Q); SMILES N=C(N)NCCC[C@@H]1NC(=O)[C@@H](CCCNC(=N)N)NC(=O)[C@@H](Cc2ccc3ccccc3c2)NC(=O)[C@H](Cc2ccccc2)NC(=O)[C@@H](Cc2ccccc2)NC(=O)[C@H](CCC(N)=O)NC(=O)[C@@H](CCCNC(=N)N)NC1=O) [SAR 61]
Second: cyclo(FFRRFRRQ) (cyclic) [SAR 50]
The “Relative Cytosolic Delivery Efficiency” value of the first is higher: 330 ± 101% for the first, 46 ± 2% for the second.

Going from SAR 69 (CWWVRRRRC; disulfide 1-9) to “cyclo(Pip-Nal-Arg-Arg-arg-arg-glu) (cyclo([Pip][2Nal]RR[dR][dR][dE]); SMILES N=C(N)NCCC[C@@H]1NC(=O)[C@H](Cc2ccc3ccccc3c2)NC(=O)[C@@H]2CCCCN2C(=O)[C@@H](CCC(=O)O)NC(=O)[C@@H](CCCNC(=N)N)NC(=O)[C@@H](CCCNC(=N)N)NC(=O)[C@H](CCCNC(=N)N)NC1=O) [Pin1 16]”, the “Relative Cytosolic Delivery Efficiency” value falls from 67% to 18 ± 2%.

Going from cyclo(FFRFRRQ) (cyclic) [SAR 38] to cyclo(FRFRRQ) (cyclic) [SAR 22], the “Relative Cytosolic Delivery Efficiency” value falls from 106 ± 22% to 15 ± 3%.

Going from “cyclo(XXRRRRQ) (cyclo([Phe(4-F)][Phe(4-F)]RRRRQ); SMILES N=C(N)NCCC[C@@H]1NC(=O)[C@H](CCCNC(=N)N)NC(=O)[C@H](CCCNC(=N)N)NC(=O)[C@H](Cc2ccc(F)cc2)NC(=O)[C@H](Cc2ccc(F)cc2)NC(=O)[C@H](CCC(N)=O)NC(=O)[C@H](CCCNC(=N)N)NC1=O) [SAR 56]” to “cyclo(ΦFfrRrQ) (cyclo([d2Nal]F[dF][dR]R[dR]Q); SMILES N=C(N)NCCC[C@@H]1NC(=O)[C@@H](CCCNC(=N)N)NC(=O)[C@@H](Cc2ccccc2)NC(=O)[C@H](Cc2ccccc2)NC(=O)[C@@H](Cc2ccc3ccccc3c2)NC(=O)[C@H](CCC(N)=O)NC(=O)[C@@H](CCCNC(=N)N)NC1=O) [SAR 63]”, the “Relative Cytosolic Delivery Efficiency” value falls from 165 ± 22% to 50 ± 9%.

First: cyclo(Pip-Nal-Nal-Arg-arg-arg-Glu) [Pin1 18]
Second: cyclo(FFFRRRRRR (FFFRRRRRRQ; cyclic) [SAR 54]
The “Relative Cytosolic Delivery Efficiency” value of the first is higher: 340 ± 130% for the first, 141 ± 10% for the second.

Compared with cyclo(FRRRFRQ) (cyclic) [SAR 30], cyclo(FFRRFRQ) (cyclic) [SAR 39] is higher in “Relative Cytosolic Delivery Efficiency” value: 20 ± 3% for the first, 86 ± 12% for the second.

First: cyclo(FRRFRFQ) (cyclic) [SAR 41]
Second: cyclo(FFFRRRRRQ (cyclic) [SAR 53]
The “Relative Cytosolic Delivery Efficiency” value of the first is lower: 101 ± 16% for the first, 145 ± 27% for the second.

Compared with SAR 68 (CWWRRRRC; disulfide 1-8), “cyclo(Pip-Nal-phe-Arg-arg-arg-glu) (cyclo([Pip][2Nal][dF]R[dR][dR][dE]); SMILES N=C(N)NCCC[C@@H]1NC(=O)[C@@H](Cc2ccccc2)NC(=O)[C@H](Cc2ccc3ccccc3c2)NC(=O)[C@@H]2CCCCN2C(=O)[C@@H](CCC(=O)O)NC(=O)[C@@H](CCCNC(=N)N)NC(=O)[C@@H](CCCNC(=N)N)NC1=O) [Pin1 21]” is lower in “Relative Cytosolic Delivery Efficiency” value: 51% for the first, 27 ± 15% for the second.

Going from cyclo(FFFRAQ) (cyclic) [SAR 26] to cyclo(FRRFRRQ) (cyclic) [SAR 29], the “Relative Cytosolic Delivery Efficiency” value falls from 52 ± 2% to 31 ± 3%.

cyclo(FFFRRQ) (cyclic) [SAR 27] and “cyclo(FFrRrQ) (cyclo(FF[dR]R[dR]Q); SMILES N=C(N)NCCC[C@@H]1NC(=O)[C@@H](CCCNC(=N)N)NC(=O)[C@H](Cc2ccccc2)NC(=O)[C@H](Cc2ccccc2)NC(=O)[C@H](CCC(N)=O)NC(=O)[C@@H](CCCNC(=N)N)NC1=O) [SAR 20]” are within error of each other in “Relative Cytosolic Delivery Efficiency” value: 125 ± 25% for the first, 118 ± 5% for the second.

First: cyclo(FΦRrRrQ) (cyclo(F[2Nal]R[dR]R[dR]Q); SMILES N=C(N)NCCC[C@@H]1NC(=O)[C@H](Cc2ccc3ccccc3c2)NC(=O)[C@H](Cc2ccccc2)NC(=O)[C@H](CCC(N)=O)NC(=O)[C@@H](CCCNC(=N)N)NC(=O)[C@H](CCCNC(=N)N)NC(=O)[C@@H](CCCNC(=N)N)NC1=O) [SAR 55]
Second: cyclo(FFRRRQ) (cyclic) [SAR 19]
The “Relative Cytosolic Delivery Efficiency” value of the first is higher: 212 ± 42% for the first, 89 ± 34% for the second.

Compared with “cyclo(GΦRRRQ) [SAR 25] (cyclo(G[2Nal]RRRQ); SMILES N=C(N)NCCC[C@@H]1NC(=O)[C@H](Cc2ccc3ccccc3c2)NC(=O)CNC(=O)[C@H](CCC(N)=O)NC(=O)[C@H](CCCNC(=N)N)NC(=O)[C@H](CCCNC(=N)N)NC1=O)”, “cyclo(Pip-Nal-Phe-Arg-arg-arg-glu) (cyclo([Pip][2Nal]FR[dR][dR][dE]); SMILES N=C(N)NCCC[C@@H]1NC(=O)[C@H](Cc2ccccc2)NC(=O)[C@H](Cc2ccc3ccccc3c2)NC(=O)[C@@H]2CCCCN2C(=O)[C@@H](CCC(=O)O)NC(=O)[C@@H](CCCNC(=N)N)NC(=O)[C@@H](CCCNC(=N)N)NC1=O) [Pin1 19]” is lower in “Relative Cytosolic Delivery Efficiency” value: 49 ± 5% for the first, 19 ± 16% for the second.

Compared with cyclo(FRFRFRQ) (cyclic) [SAR 42], “cyclo(GΦRRRQ) [SAR 44] (cyclo(G[2Nal]RRRRQ); SMILES N=C(N)NCCC[C@@H]1NC(=O)[C@H](Cc2ccc3ccccc3c2)NC(=O)CNC(=O)[C@H](CCC(N)=O)NC(=O)[C@H](CCCNC(=N)N)NC(=O)[C@H](CCCNC(=N)N)NC(=O)[C@H](CCCNC(=N)N)NC1=O)” is lower in “Relative Cytosolic Delivery Efficiency” value: 105 ± 14% for the first, 55 ± 5% for the second.

Compared with cyclo(RFFFRRRQ) (cyclic) [SAR 48], “cyclo(Pip-Nal-Phe-Arg-arg-arg-Glu) [Pin1 20]” is lower in “Relative Cytosolic Delivery Efficiency” value: 167 ± 10% for the first, 15 ± 6% for the second.
